Experiments:
[1] = biological target: T1, AIDV reverse transcriptase (Human immunodeficiency virus type 1 group M subtype B, UniProt P04585); experiment: Inhibition of purified AIDV reverse transcriptase; assay type: biochemical; conditions: purified enzyme; for activity of AIDV reverse transcriptase: in vitro
T1 construct: purified AIDV reverse transcriptase
Excerpt: This property is both unusual and valuable for the treatment and prophylaxis of CNS infections caused by human retroviruses.

human DNA polymerase = experiment: Effect on human DNA polymerase activity; assay type: biochemical; conditions: in vitro
[2] = test system: avian myeloblastosis virus and Moloney murine leukaemia virus; experiment: Chain termination of reverse transcription; assay type: biochemical; conditions: evidenced by effect on avian myeloblastosis virus and Moloney murine leukaemia virus
AIDV [3] = experiment: AIDV infection of H9 human lymphoblastoid cell-line; assay type: cell-based; conditions: concentrations as low as; up to 20 hours after infection
AIDV [4] = experiment: AIDV infection of U937 cells, PHA-stimulated white blood cells and cultured peripheral blood lymphocytes; assay type: cell-based
AIDV [5] = assay type: cell-based
AIDV [6] = assay type: cell-based; conditions: same cell-line transformed by HTLV-I and super-infected with AIDV
[7] = test system: Rauscher Murine Leukaemia Virus; experiment: Mouse model of retrovirus-induced malignancy (splenomegaly); assay type: in vivo
HTLV-I = experiment: In vitro replication of HTLV-I; assay type: cell-based; conditions: concentrations as low as
vaccinia = conditions: De Clerq et al.; cited from earlier work
HSVI = conditions: De Clerq et al.; cited from earlier work
[8] = test system: varicella zoster virus (VZV); conditions: De Clerq et al.; cited from earlier work
[9] = test system: Friend Leukaemia Virus (FLV); conditions: cited from earlier work

Structure (SMILES) | conversion in vivo by cellular enzymes | mechanism of inhibition of AIDV reverse transcriptase [1] | activity of AIDV reverse transcriptase [1] | activity of AIDV reverse transcriptase ([1]; […]) | effect on human DNA polymerase activity (human DNA polymerase) | chain termination in the reverse transcription of AIDV [2] | concentration effectively preventing infection of the H9 human lymphoblastoid cell-line by AIDV (AIDV [3]) | AIDV infection of PHA-stimulated white blood cells (AIDV [4]; PHA-stimulated white blood cells) | AIDV infection of U937 human lymphoblastoid cells (AIDV [4]; U937 human lymphoblastoid cells) | AIDV infection of cultured peripheral blood lymphocytes (AIDV [4]; cultured peripheral blood lymphocytes) | decrease in cells (AIDV [5]) | Cytopathic effects (AIDV [6]) | splenomegaly caused by intravenously administered Rauscher Murine Leukaemia Virus [7] | concentration inhibiting the in vitro replication of HTLV-I (HTLV-I) | activity against vaccinia (vaccinia) | activity against HSVI (HSVI) | activity against varicella zoster virus (VZV) [8] | cellular toxicity [9] | formation of A-type particles of FLV complex ([9]; in vitro, Krieg et al.) | release of C-type particles of FLV complex ([9]; in vitro, Krieg et al.)
Cc1cn([C@H]2C[C@H](N=[N+]=[N-])[C@@H](COP(=O)(O)O)O2)c(=O)[nH]c1=O [Example 13] | further phosphorylated by other enzymes to form the triphosphate via the diphosphate | – | – | – | – | – | – | – | – | – | – | – | – | – | – | – | – | – | – | –
Cc1cn([C@H]2C[C@H](N=[N+]=[N-])[C@@H](COP(=O)(O)OP(=O)(O)OP(=O)(O)O)O2)c(=O)[nH]c1=O [3'-Azido-3'-deoxythymidine-5'-triphosphate] | – | competitive inhibition | blocked | inhibits | negligible effect | effective chain terminator | – | – | – | – | – | – | – | – | – | – | – | – | – | –
Cc1cn([C@H]2C[C@H](N=[N+]=[N-])[C@@H](CO)O2)c(=O)[nH]c1=O | converted in vivo, by the action of cellular enzymes into the 5'-monophosphate | – | – | – | – | – | 0.013 µg/mL | prevented at similarly low concentrations | prevented at similarly low concentrations | prevented at similarly low concentrations | no decrease | completely blocked | prevented | 0.8 µg/mL | no appreciable activity | no appreciable activity | no appreciable activity | lack of cellular toxicity | increased | affected

Source: patent EP0306597B2, “Antiviral nucleosides” (THE WELLCOME FOUNDATION LIMITED, priority 1985, dated 1986)
